For the assay, the system named is BDF1 mice, B16 melanoma ip, median survival T/C. As to the kind of experiment: NCI In Vivo Anticancer Drug Screen. Data for tumor model B16 Melanoma (intraperitoneal) in B6D2F1 (BDF1) mice. As to conditions: endpoint: median survival time, higher = longer survival. The procedure, abridged: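 Read-out: survival or tumor size, given as treated/control ratio. Controls received vehicle only; animals bore transplantable tumors.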

Setting [1] is: dose: 100.0 mg/kg/injection, schedule: Q01DX009 (ip), vehicle: Klucel (hydroxypropylcellulose) (HPC).
Where [2] appears, read: dose: 200.0 mg/kg/injection, schedule: Q01DX009 (ip), vehicle: Klucel (hydroxypropylcellulose) (HPC).
[3] abbreviates: dose: 400.0 mg/kg/injection, schedule: Q01DX009 (ip), vehicle: Klucel (hydroxypropylcellulose) (HPC).
[4] abbreviates: dose: 25.0 mg/kg/injection, schedule: Q01DX009 (ip), vehicle: Klucel (hydroxypropylcellulose) (HPC).
The mark [5] stands for this setting: dose: 50.0 mg/kg/injection, schedule: Q01DX009 (ip), vehicle: Klucel (hydroxypropylcellulose) (HPC).
Setting [6] is: dose: 100.0 mg/kg/injection, schedule: Q04DX003 (ip), vehicle: Klucel (hydroxypropylcellulose) (HPC).
Where [7] appears, read: dose: 25.0 mg/kg/injection, schedule: Q01DX009 (ip), vehicle: saline with Tween-80.
The mark [8] stands for this setting: dose: 100.0 mg/kg/injection, schedule: Q01DX009 (ip), vehicle: saline with Tween-80.
Setting [9] is: dose: 12.5 mg/kg/injection, schedule: Q01DX009 (ip), vehicle: saline with Tween-80.
Setting [10] is: dose: 200.0 mg/kg/injection, schedule: Q04DX003 (ip), vehicle: Klucel (hydroxypropylcellulose) (HPC).
Setting [11] is: dose: 400.0 mg/kg/injection, schedule: Q04DX003 (ip), vehicle: Klucel (hydroxypropylcellulose) (HPC).
The mark [12] stands for this setting: dose: 6.25 mg/kg/injection, schedule: Q01DX009 (ip), vehicle: saline.
Setting [13] is: dose: 12.5 mg/kg/injection, schedule: Q01DX009 (ip), vehicle: saline.
[14] abbreviates: dose: 25.0 mg/kg/injection, schedule: Q01DX009 (ip), vehicle: saline.
[15] abbreviates: dose: 50.0 mg/kg/injection, schedule: Q01DX009 (ip), vehicle: saline.

“And” between values parts separate entries of the source, which are not always exact repeats. Equal entries are not always repeated. Inconclusive results and toxic doses are left out.

With `NC(N)=NCCc1ccccc1`, the T/C is 119 % of control (dose: 5.0 mg/kg/injection, schedule: Q01DX009 (ip), vehicle: saline); 111 % of control (dose: 10.0 mg/kg/injection, schedule: Q01DX009 (ip), vehicle: saline); 114 % of control (dose: 20.0 mg/kg/injection, schedule: Q01DX009 (ip), vehicle: saline).
Consider `CCOC(=O)/C=C(\C)Nc1ccc(F)cc1`, for which the T/C under setting [1] was 88 % of control, the T/C under setting [2] was 97 % of control and the T/C under setting [3] is 91 % of control.
As to `CC(C)/C=C(\C#N)C(=O)O`, the T/C by setting is: (dose: 12.5 mg/kg/injection, schedule: Q01DX009 (ip), vehicle: Klucel (hydroxypropylcellulose) (HPC)) 100 % of control; under setting [4], 100 % of control; under setting [5], 100 % of control.
`CN1CCN(Cc2c(O)ccc3c4c(c(=O)oc23)CCCC4)CC1`: the T/C was 105 % of control (dose: 32.0 mg/kg/injection, schedule: Q01DX009 (ip), vehicle: Klucel (hydroxypropylcellulose) (HPC)); 100 % of control (dose: 64.0 mg/kg/injection, schedule: Q01DX009 (ip), vehicle: Klucel (hydroxypropylcellulose) (HPC)); 100 % of control (dose: 128.0 mg/kg/injection, schedule: Q01DX009 (ip), vehicle: Klucel (hydroxypropylcellulose) (HPC)).
With `CC(Cc1ccccc1)NC(=O)/C=C/C(=O)O` (stereo not given), the T/C was 95 % of control under setting [1], 91 % of control under setting [2] and 89 % of control under setting [3].
Turning to `c1ccc2c(CNC3CCCCC3)c[nH]c2c1`, the T/C was 89 % of control under setting [4], 97 % of control under setting [5] and 92 % of control under setting [6].
Take `Cc1ccc(S(=O)(=O)Nc2ccccc2-c2nc3c(Cl)ccc(Cl)c3c(=O)o2)cc1`: the T/C runs as follows: under setting [1], 105 % of control; under setting [2], 92 % of control.
Consider `O=C(NC(CSCc1ccccc1)C(=O)Oc1ccc([N+](=O)[O-])cc1)OCc1ccccc1` (stereo not given), for which the T/C (dose: 25.0 mg/kg/injection, schedule: Q01DX009 (ip), vehicle: gum acacia) is 97 % of control.
In the case of `CS(=O)(=O)c1cc(=O)[nH]c(=O)[nH]1`, the T/C is 95 % of control under setting [7] and 92 % of control under setting [8].
On to `CN(C)N=Nc1ccc(S(=O)(=O)Nc2ncccn2)cc1`, for which the T/C was 108 % of control under setting [9]; 110 % of control (dose: 14.7 mg/kg/injection, schedule: Q01DX009 (ip), vehicle: saline with Tween-80); 116 % of control (dose: 22.0 mg/kg/injection, schedule: Q01DX009 (ip), vehicle: saline with Tween-80); 123 % of control under setting [7]; 106 % of control and 123 % of control (dose: 33.0 mg/kg/injection, schedule: Q01DX009 (ip), vehicle: saline with Tween-80); 115 % of control (dose: 75.0 mg/kg/injection, schedule: Q01DX009 (ip), vehicle: saline with Tween-80).
Consider `[CH3][Sn]([CH3])([CH3])[O]C(=O)CCl`, for which the T/C was 104 % of control (dose: 0.02 mg/kg/injection, schedule: Q01DX009 (ip), vehicle: saline); 107 % of control (dose: 0.05 mg/kg/injection, schedule: Q01DX009 (ip), vehicle: saline); 109 % of control (dose: 0.1 mg/kg/injection, schedule: Q01DX009 (ip), vehicle: saline); 104 % of control (dose: 0.19 mg/kg/injection, schedule: Q01DX009 (ip), vehicle: saline); 93 % of control (dose: 0.2 mg/kg/injection, schedule: Q01DX009 (ip), vehicle: saline); 104 % of control (dose: 0.75 mg/kg/injection, schedule: Q01DX009 (ip), vehicle: saline).
Turning to `Cc1ccc(NC(=O)c2ccc(Cl)cc2Cl)cc1Cl`, the T/C under setting [6] is 102 % of control, the T/C under setting [10] is 92 % of control and the T/C under setting [11] is 95 % of control.
For the molecule `CC1=CC(=NN=c2cc(C)n([O-])c(C)c2)C=C(C)[N+]1=O`, the T/C is, setting by setting: under setting [9], 111 % of control; under setting [7], 115 % of control; (dose: 50.0 mg/kg/injection, schedule: Q01DX009 (ip), vehicle: saline with Tween-80) 118 % of control.
As to `CC1Cc2c(Cl)cc(C(=O)NC(Cc3ccccc3)C(=O)O)c(O)c2C(=O)O1` (stereo not given), the T/C runs as follows: (dose: 0.12 mg/kg/injection, schedule: Q01DX009 (ip), vehicle: saline with Tween-80) 112 % of control; (dose: 0.25 mg/kg/injection, schedule: Q01DX009 (ip), vehicle: saline with Tween-80) 119 % of control; (dose: 0.5 mg/kg/injection, schedule: Q01DX009 (ip), vehicle: saline with Tween-80) 114 % of control.
As to `O=C/C=C/c1ccc([N+](=O)[O-])cc1`, the T/C under setting [7] is 100 % of control.
Regarding `CCC(NC(=O)OC(C)(C)C)C(=O)O` (stereo not given), the T/C under setting [12] is 100 % of control; the T/C under setting [13] was 95 % of control; the T/C under setting [14] is 95 % of control; the T/C under setting [15] was 88 % of control and 96 % of control.
For `CC(C)CC(C)(c1ccc(O)cc1)c1ccc(O)cc1`, the T/C was 98 % of control under setting [8] and 98 % of control (dose: 200.0 mg/kg/injection, schedule: Q01DX009 (ip), vehicle: saline with Tween-80).
With `CCCCc1ccc(-n2c(C)c(COC(=O)NC)c(COC(=O)NC)c2C)cc1`, the T/C under setting [4] was 159 % of control.
In the case of `CNC(=S)N/N=C1/c2cc(Cl)ccc2-c2c(Cl)cc(Cl)cc21`, where the note is “dose: 6.25 mg/kg/injection, schedule: Q01DX009 (ip), vehicle: saline with Tween-80”, the T/C is 91 % of control.
As for `O=C1c2ccccc2C(=O)c2c(NCCNCCNCCO)ccc(NCCNCCNCCO)c21`, the T/C is, setting by setting: (dose: 8.0 mg/kg/injection, schedule: Q01DX009 (ip), vehicle: acid diluted with saline) 97 % of control; (dose: 16.0 mg/kg/injection, schedule: Q01DX009 (ip), vehicle: acid diluted with saline) 101 % of control; (dose: 32.0 mg/kg/injection, schedule: Q01DX009 (ip), vehicle: acid diluted with saline) 103 % of control; (dose: 64.0 mg/kg/injection, schedule: Q01DX009 (ip), vehicle: acid diluted with saline) 100 % of control; (dose: 128.0 mg/kg/injection, schedule: Q01DX009 (ip), vehicle: acid diluted with saline) 98 % of control.
Consider `CN(C)N=Nc1ccc(C(=O)O)cc1`, for which the T/C was 113 % of control under setting [14] and 119 % of control under setting [15].
Turning to `CC(C)(O)c1cccc2c(C(C)(C)O)cccc12`, the T/C was 92 % of control under setting [1], 114 % of control under setting [2] and 91 % of control under setting [3].
Take `CCN(CC)C(=S)SSC(=S)N(CC)CC`: the T/C is 110 % of control (dose: 0.78 mg/kg/injection, schedule: Q01DX009 (ip), vehicle: Klucel (hydroxypropylcellulose) (HPC)); 86 % of control (dose: 1.56 mg/kg/injection, schedule: Q01DX009 (ip), vehicle: Klucel (hydroxypropylcellulose) (HPC)); 97 % of control (dose: 3.12 mg/kg/injection, schedule: Q01DX009 (ip), vehicle: Klucel (hydroxypropylcellulose) (HPC)); 105 % of control (dose: 6.25 mg/kg/injection, schedule: Q01DX009 (ip), vehicle: Klucel (hydroxypropylcellulose) (HPC)); 92 % of control under setting [4].
Take `C(COCC1CO1)OCC1CO1` (stereo not given): the T/C is 91 % of control under setting [14]; 113 % of control under setting [15]; 119 % of control (dose: 100.0 mg/kg/injection, schedule: Q01DX009 (ip), vehicle: saline).
On to `CN(N=O)C(N)=O`, for which the T/C runs as follows: (dose: 3.13 mg/kg/injection, schedule: Q01DX009 (ip), vehicle: saline) 114 % of control; under setting [12], 116 % of control.
As for `COc1ccc(NC(=O)O/N=C2\CN(S(=O)(=O)c3ccc(C)cc3)CCc3ccccc32)cc1`, the T/C by setting is: under setting [6], 102 % of control; under setting [10], 97 % of control; under setting [11], 88 % of control.
With `OCCNCCN1CCN(CCCN2c3ccccc3Sc3ccc(C(F)(F)F)cc32)CC1`, the T/C is 108 % of control (dose: 3.12 mg/kg/injection, schedule: Q01DX009 (ip), vehicle: saline); 102 % of control under setting [12]; 100 % of control under setting [13]; 92 % of control under setting [14].

The values are drawn from PubChem BioAssay AID192 (DTP/NCI, 2004).
